One compound from US11142524B2, “Substituted-3H-imidazo[4,5-c]pyridine and 1H-pyrrolo[2,3-c]pyridine series of novel Ectonucleotide Pyrophosphatase/Phosphodiesterase-1 (ENPP1) and stimulator for interferon genes (STING) modulators as cancer immunotherapeutics” (Stingray Therapeutics, Inc., priority 2018, dated 2021) can be followed below.

In assay [1] the target is Recombinant Human ENPP-2/Autotaxin Protein (Homo sapiens (Human), UniProt Q13822). As to the kind of experiment: ENPP2 Inhibition Assay. Type of assay: biochemical. The protocol:
Assay Buffer: 10 mM CaCl2, 5 mM MgCl2, 50 mM Tris, 0.02% Brij-35, pH 8.5. Substrate: 2 mM Bis(p-Nitrophenyl) Phosphate Sodium Salt (Sigma Cat # N3002). Enzyme: 0.2 ng/μL Recombinant Human ENPP-2/Autotaxin Protein (R&D Cat #5255-EN), PF-3080 in DMSO in 96-well clear assay plates
An eight point serial dilution of drugs was prepared in 10× in assay buffer with the final assay concentrations starting at 10 μM, 3 μM, 1 μM, 0.3 μM . . . 0 μM. A dilution of DMSO was included as a control. The assay plate was set up as follows with each well in duplicate: 15 μL assay buffer+10 μL ENPP1 inhibitor or DMSO+50 μL Substrate+25 μL Enzyme. Both the enzyme and substrate were added to opposite sides of the well to ensure that there was no interaction until all wells had both components. The plate was then centrifuged gently for 10 seconds, followed by an incubation at 37° C. for 45 minutes. The reaction was quantified by measuring absorbance at 405 nm using the Envision.
IC50 values are determined using GraphPad Prism 5 software. The data were entered as an X-Y plot into the software as percent inhibition for each concentration of the drug. The concentration values of the drug were log transformed and the nonlinear regression was carried out using the “sigmoidal dose-response (variable slope)” option within the GraphPad software to model the data and calculate IC50 values. The IC50 values reported are the concentration of drug at which 50% inhibition was reached.

The subject of a further assay is Saos-2 Cells. As to the kind of experiment: ENPP1 Mineralization Assay. The note with it: FIG. 9, mineralization components for 3 days. Type of assay: cell-based. On the procedure: Saos-2 Cells (ATCC CAT #HTB-85). Culture Medium. 24-well Tissue Culture Plate. Ascorbic Acid, 5 mg/mL (100×). β-Glycerophosphate, 1M (100×). Phosphate Buffered Saline. Alizarin Red, 40 mM pH 4.2. 70% Ethanol. Dye Extraction Reagent, 10% Methanol+10% Acetic Acid
Saos-2 cells were plated at a density of 1.5×10^6 cells/well and allowed to grow to 100% confluency over the following 1-2 days. Once completely confluent, the media was replaced with fresh media supplemented with 1× ascorbic acid, 1× β-glycerophosphate, and varying concentrations of ENPP1 inhibitor (if applicable). The addition of the mineralization components was considered Day 1. On Day 3, the media was gently aspirated with no wash followed by the addition of fresh media, mineralization components, and ENPP1 inhibitor (if applicable). On day 5, the media was gently aspirated and the cells were washed twice with PBS. The cells were then fixed with ice cold 70% ethanol for 1 hour at 4° C. Cells were washed once with PBS and stained with Alizarin Red for 30 minutes at room temperature with gentle rotation. Stained cells were washed three times with water for 10 minutes at room temperature with gentle rotation. After imaging cells, dye extraction reagent was added to each well and incubated for 30 minutes at room temperature. Alizarin red was quantified by measuring absorbance at a wavelength of 405 nm using the Envision.
FIG. 9 depicts a picture of results of a similar SAOS-2 mineralization assay. SAOS-2 cell were cultured in the presence and absence of ENPP1 inhibitor (compound 78, 107-02 or 108) and exposed to mineralization components for 3 days.

The target in assay [2] is Recombinant Human ENPP-1 Protein (purified in-house) (Homo sapiens (Human), UniProt P22413). As to the kind of experiment: ENPP1 Assay (TMP), Example 2. Type of assay: biochemical.
Recombinant Human ENPP-1 Protein (purified in-house), sequence (P22413 whole entry, looked up): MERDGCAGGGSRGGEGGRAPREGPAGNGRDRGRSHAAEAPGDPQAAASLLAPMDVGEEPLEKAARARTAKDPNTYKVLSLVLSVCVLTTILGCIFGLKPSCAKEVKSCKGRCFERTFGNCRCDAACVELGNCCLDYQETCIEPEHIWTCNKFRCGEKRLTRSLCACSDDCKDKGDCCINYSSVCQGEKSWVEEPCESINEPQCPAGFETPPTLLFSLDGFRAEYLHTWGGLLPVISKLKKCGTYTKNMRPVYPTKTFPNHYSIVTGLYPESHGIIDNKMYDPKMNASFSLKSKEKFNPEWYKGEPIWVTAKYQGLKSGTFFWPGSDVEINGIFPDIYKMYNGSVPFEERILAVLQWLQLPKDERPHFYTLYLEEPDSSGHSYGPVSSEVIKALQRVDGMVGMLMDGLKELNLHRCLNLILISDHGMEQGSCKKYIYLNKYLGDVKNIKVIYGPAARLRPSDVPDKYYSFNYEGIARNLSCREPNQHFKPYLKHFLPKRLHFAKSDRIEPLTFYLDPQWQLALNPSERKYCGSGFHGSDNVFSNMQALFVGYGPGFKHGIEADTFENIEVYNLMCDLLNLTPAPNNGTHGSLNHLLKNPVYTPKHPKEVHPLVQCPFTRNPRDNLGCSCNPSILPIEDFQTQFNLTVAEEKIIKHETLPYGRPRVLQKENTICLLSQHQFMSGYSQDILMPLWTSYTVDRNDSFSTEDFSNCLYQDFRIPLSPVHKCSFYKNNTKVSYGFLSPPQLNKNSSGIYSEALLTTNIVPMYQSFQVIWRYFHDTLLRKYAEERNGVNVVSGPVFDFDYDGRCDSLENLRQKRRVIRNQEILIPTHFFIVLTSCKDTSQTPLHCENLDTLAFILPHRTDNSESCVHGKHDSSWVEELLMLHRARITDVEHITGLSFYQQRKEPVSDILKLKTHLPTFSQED
In a further assay the test system is B16F10 tumor. As to the kind of experiment: Anti-tumor efficacy in B16F10 (melanoma) syngeneic model. The class given is in vivo, C57BL/6 mice. From the text: Animals: Female C57BL/6 (4-6 week's age from Taconic).
The B16F10 cells were propagated in DMEM cell culture medium containing 10% Fetal Bovine Serum. Cells were harvested in logarithmic growth phase and implanted subcutaneously ([…]) in the lower abdomen of mice. Tumor growth was monitored daily and after the tumors had reached 80 to 100 mm3, mice were randomized into groups consisting of 8 animals per group. Animals were euthanized when tumors reached around 2000 mm^3 or treatment regime completed or 20% of body weight loss, or developed ulceration and necrosis. Upon termination, tumor samples and blood were collected and analyzed for biomarkers.

Where two headings read alike, the source gives them in different places.

Regarding `COc1ccc(NC(=O)CSc2nc3c(C)c(C#N)ncc3[nH]2)cc1O` [Compound 78, 2-((6-Cyano-7-methyl-3H-imidazo[4,5-c]pyridin-2-yl)thio)-N-(3-hydroxy-4-methoxyphenyl) acetamide], the “selective at inhibiting ENPP1 but not ENPP2” value in assay [1] is listed as “selective”. In addition, in assay [1] (FIGS. 2A and 2B), the “inhibiting the activity of ENPP2” value is listed as “ineffective”. For the same compound, in the assay on Saos-2 Cells, the total mineralization entry was “significant decrease”. In addition, the IC50 (as a rule, the point on the concentration scale where inhibition reaches its midpoint) in assay [2] (FIG. 5A, TMP substrate, read-out: IC50) is 0.271 µM; in assay [2] (Table 5, TMP substrate, read-out: ENPP1 (IC50 μM) TMP), 0.271 µM. Further, the “B16F10 tumor growth inhibition” value was 28% with B16F10 tumor (30 mg/kg dose (FIG. 6A / FIG. 13A)); 27% with B16F10 tumor (FIG. 6B / FIG. 13B, dose and route not stated).
